# Laboratory results as given in US20260335299A1, “SUBSTITUTED OXOISOINDOLINYL PIPERIDINE-2,6-DIONE COMPOUND AS ANTICANCER AGENT” (BRISTOL-MYERS SQUIBB COMPANY, priority 2023, published 2026).
# Key:
# [1] = molecular target: T1, IKZF1 Ikaros (Homo sapiens, UniProt Q13422+Q96SW2); assay: Human Regulatory T Cell Degradation Assay (Ikaros); assay type: cell-based; conditions: human regulatory T cells, 20 h
# Procedure: Cryopreserved human regulatory T cells were thawed in RPMI+10% FBS+20 ng/mL IL-2. After being spun at 1200 rpm for 5 mins, the cells were resuspended in RPMI+10% FBS+20 ng/ml and rested at 37° C. with 5% CO2 for 3 hours. The cells were then plated at 40,000 cells/well in 40 μL RPMI+10% FBS+20 ng/mL human IL-2 in a 384 well cell culture plate prior to using acoustic dispensing technology (ECHO 555) for adding compounds of interest. Cell cultures were incubated for 20 hours at 37° C. and 5% CO2. In order to facilitate analysis, cell cultures were spun down at 1200 rpm for 5 minutes and the supernatant was discarded using an EL406 plate washer. After washing three times with […] PBS, cell pellets were resuspended in 50 μL of […] viability staining solution (Life Technologies, Cat #L34975) and incubated for 30 minutes on ice protected from light. Cells were washed three times with 70 μL PBS+0.5% BSA using an EL406 plate washer. After shaking the plate to dislodge the cell pellet, cells were resuspended in 50 μL of Fixation Buffer (eBioScience FoxP3 buffer set 00-5523-00) for 60 minutes at room temperature. After centrifuging and discarding the supernatant, cells were permeabilized with 50 μL of permeabilization buffer (eBioScience FoxP3 buffer set 00-5523-00) for 10 minutes at room temperature. Following permeabilization, cells were spun down and the supernatant was replaced with 30 μL fluorescently labelled antibodies against the intracellular targets Helios (Helios-APC [BioLegend, Cat #137222, 1:50])]), Aiolos, and Ikaros 1× Permeabilization buffer and staining reactions were incubated for 1 hour at room temperature; protected from light. Subsequently, […] Permeabilization buffer was added prior to centrifuging the cells and discarding the supernatant. Stained cells were resuspended in 30 μL of flow cytometry staining buffer (PBS+0.5% BSA) and analyzed using an Intellicyt Ique Plus flow cytometer.
# (§1) Table B-1 lists the maximum observed degradation of the IKZF1 protein and IKZF2 protein as measured in the Human Regulatory T Cell Degradation assay. The results in Table B-1 were rounded to two digits. In the Human Regulatory T Cell Degradation assay, a value of 100% indicated no detectable protein remaining or complete degradation of the protein; and a value of 0% indicated no detectable degradation of the protein by the test compound.
# [2] = molecular target: T1, IKZF1 Ikaros; assay: Human CD8+ T Cell Reprogramming (Degradation) Assay (Ikaros); assay type: cell-based; parameters: Cryopreserved healthy donor human peripheral blood mononuclear cells (PBMC); endogenous in cells; host or cells: CD8+ T cells within healthy donor human PBMC; conditions: CD8+ T cells, human PBMC, 24 h
# Procedure: Cryopreserved healthy donor human peripheral blood mononuclear cells (PBMC) from healthy donors were thawed and seeded at 500,000 cells/well of 96-well round bottom plates in RPMI 1640 media (Gibco) supplemented with 10% FBS, Pen/Strep (Gibco), MEM-NEAA (Gibco), and sodium pyruvate (Gibco). Cells were treated with titrated doses of compound for 24 hours at 37° C., 5% CO2 before analyzing by flow cytometry.
# For flow cytometry staining, cells were washed twice with flow cytometry staining buffer (Thermo Fisher) and incubated in Human Tru-stain Fc block (Biolegend) for 10 minutes before adding eFluor780 viability dye (Thermo Fisher) and surface marker antibody cocktail containing LD-eFluor780, CD3-BUV-395, CD4-BUV805, CD8-FITC, and CD25-BV605 for 30 minutes at 4° C. Cells were then fixed and permeabilized by incubation with permeabilization buffer (eBioscience FoxP3 buffer set 00-5523-00) for 30 minutes at 4° C. as per the kit manufacturer's instructions. Cells were washed twice with the Perm/Wash buffer supplied in the kit as per the manufacturer's instructions and incubated overnight at 4° C. with an intracellular antibody cocktail comprised of antibodies specific for the transcription factors (i.e., Foxp3-BV421, HELIOS-PE-Cy7, EOS-PE, IKAROS-PECF594, AIOLOS-AF647). Cells were washed twice with Perm/Wash buffer and resuspended in flow cytometry staining buffer (Thermo Fisher) prior to acquisition. Sample acquisition and analysis was performed using a BD LSRFortessa (BD Biosciences) flow cytometer. Single-stain controls for each fluorochrome were prepared using UltraComp eBead Compensation Beads (Thermo Fisher). Data were analyzed using FlowJo version 10 and GraphPad Prism Software.
# as §1, with “D-1” for “B-1”, “IKZF3” for “IKZF2”, “CD8^+” for “Regulatory”, “Reprogramming” for “Degradation”
# [3] = concentration reducing protein level by 50% compared to DMSO alone
# T1 sequence (Q13422 whole entry): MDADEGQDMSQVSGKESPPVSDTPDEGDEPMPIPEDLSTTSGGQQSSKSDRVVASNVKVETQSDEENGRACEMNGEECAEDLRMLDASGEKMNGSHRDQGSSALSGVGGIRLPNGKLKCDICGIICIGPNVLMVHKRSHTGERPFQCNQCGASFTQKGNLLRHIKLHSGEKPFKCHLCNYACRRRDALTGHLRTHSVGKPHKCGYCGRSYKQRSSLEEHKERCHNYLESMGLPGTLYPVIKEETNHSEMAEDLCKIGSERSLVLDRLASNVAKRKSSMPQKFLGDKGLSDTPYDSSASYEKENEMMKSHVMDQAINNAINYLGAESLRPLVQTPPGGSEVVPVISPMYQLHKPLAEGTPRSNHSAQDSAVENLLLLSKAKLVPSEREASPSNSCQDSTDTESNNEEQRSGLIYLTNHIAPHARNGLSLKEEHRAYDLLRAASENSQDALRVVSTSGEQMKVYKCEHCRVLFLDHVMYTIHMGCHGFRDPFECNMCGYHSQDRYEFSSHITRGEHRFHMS
# T1 sequence (Q96SW2 whole entry): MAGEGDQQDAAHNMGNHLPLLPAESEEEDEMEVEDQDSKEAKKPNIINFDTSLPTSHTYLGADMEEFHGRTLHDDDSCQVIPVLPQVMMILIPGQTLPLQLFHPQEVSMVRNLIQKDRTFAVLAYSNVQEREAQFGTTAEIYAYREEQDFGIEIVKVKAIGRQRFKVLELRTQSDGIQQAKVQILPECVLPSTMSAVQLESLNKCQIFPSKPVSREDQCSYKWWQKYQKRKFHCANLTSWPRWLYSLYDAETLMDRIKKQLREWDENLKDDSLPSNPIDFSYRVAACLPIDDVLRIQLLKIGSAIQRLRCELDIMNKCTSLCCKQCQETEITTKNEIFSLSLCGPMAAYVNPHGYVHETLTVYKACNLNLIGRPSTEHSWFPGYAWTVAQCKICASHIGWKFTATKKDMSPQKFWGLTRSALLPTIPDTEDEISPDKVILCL
# T1 sequence (Q16531 whole entry partner): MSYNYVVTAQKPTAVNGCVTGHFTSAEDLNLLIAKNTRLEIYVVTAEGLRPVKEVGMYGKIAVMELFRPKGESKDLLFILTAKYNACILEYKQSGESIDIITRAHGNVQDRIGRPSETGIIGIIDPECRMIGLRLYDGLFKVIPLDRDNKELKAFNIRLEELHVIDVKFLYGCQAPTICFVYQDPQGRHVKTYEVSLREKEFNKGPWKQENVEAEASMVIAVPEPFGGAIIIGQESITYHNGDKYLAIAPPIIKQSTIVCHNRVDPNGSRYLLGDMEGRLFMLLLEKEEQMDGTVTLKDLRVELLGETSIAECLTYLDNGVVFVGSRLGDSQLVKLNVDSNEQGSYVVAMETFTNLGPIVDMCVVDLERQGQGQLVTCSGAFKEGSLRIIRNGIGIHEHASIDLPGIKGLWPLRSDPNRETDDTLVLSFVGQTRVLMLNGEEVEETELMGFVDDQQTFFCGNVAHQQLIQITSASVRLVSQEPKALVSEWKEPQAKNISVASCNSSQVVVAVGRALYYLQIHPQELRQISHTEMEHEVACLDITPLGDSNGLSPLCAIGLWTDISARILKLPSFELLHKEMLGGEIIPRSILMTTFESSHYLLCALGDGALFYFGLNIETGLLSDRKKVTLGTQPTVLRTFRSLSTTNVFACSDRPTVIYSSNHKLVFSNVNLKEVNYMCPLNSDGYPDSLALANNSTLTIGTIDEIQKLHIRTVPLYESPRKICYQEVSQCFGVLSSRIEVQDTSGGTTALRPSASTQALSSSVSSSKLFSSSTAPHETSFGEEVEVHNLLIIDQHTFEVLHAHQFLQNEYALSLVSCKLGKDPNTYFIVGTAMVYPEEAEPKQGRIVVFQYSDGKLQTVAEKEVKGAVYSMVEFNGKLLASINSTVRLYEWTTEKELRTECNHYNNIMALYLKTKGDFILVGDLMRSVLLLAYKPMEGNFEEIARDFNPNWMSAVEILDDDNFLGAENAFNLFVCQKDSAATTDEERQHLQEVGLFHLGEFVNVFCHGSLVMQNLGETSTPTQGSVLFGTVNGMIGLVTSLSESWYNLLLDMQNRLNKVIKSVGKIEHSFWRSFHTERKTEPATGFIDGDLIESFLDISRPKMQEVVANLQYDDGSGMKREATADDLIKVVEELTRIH
smiles,measurement,setting,value
"Nc1nc(-c2ccc3c(c2F)CN(C2CCC(=O)NC2=O)C3=O)ccc1CN1CC(C2CCC(F)(F)CC2)C1 (stereo not shown) [Example 1, 3-(5-(6-Amino-5-((3-(4,4-difluorocyclohexyl)azetidin-1-yl)methyl)pyridin-2-yl)-4-fluoro-1-oxoisoindolin-2-yl) piperidine-2,6-dione]",Dmax,"[1]; Regulatory T cell, read-out: IKZF1 Ikaros max % deg. observed",62%
same,DC50,[1]; [3],0.194 µM
same,DC50,[2]; [3],0.035 to 0.044 µM
same,Dmax,[2]; read-out: IKZF1 Ikaros Maximum Observed Degradation,86%
